Laboratory results reported in paper PMC4634243 (Influenza and Other Respiratory Viruses, 2012).

Columns and labels:
[1] = test system: H5N1 influenza virus strain 178; assay type: cell-based, H5N1 influenza virus strain 178 in MDCK cells; conditions: 12–72 h
[2] = test system: RNP combinations of PB2, PB1, PA, and NP from influenza virus strain 178; assay type: cell-based, influenza virus strain 178 (H5N1), 293T cells
[3] = test system: H5N1 influenza virus strain 178; test: organism not typed; assay type: cell-based, H5N1 influenza virus strain 178 in MDCK cells
purified N1‐type NA = purified N1‐type NA (Influenza A virus, UniProt P03468); assay type: biochemical
Sequence of purified N1‐type NA (P03468 whole entry): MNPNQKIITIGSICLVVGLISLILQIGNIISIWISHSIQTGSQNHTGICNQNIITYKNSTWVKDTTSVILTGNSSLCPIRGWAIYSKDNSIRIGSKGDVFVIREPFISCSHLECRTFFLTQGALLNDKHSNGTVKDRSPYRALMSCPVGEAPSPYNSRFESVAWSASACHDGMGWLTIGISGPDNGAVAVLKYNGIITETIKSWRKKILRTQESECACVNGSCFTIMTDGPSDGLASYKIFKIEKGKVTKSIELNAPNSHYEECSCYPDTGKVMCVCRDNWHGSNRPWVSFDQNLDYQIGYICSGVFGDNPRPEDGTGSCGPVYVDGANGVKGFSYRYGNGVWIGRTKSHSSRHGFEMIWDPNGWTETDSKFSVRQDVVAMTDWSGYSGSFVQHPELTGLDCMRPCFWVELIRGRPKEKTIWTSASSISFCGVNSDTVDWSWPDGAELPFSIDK

[4] = test system: H5N1‐HIV pseudoviruses (HA of A/Qinghai/59/2005(H5N1), NA of A/Thailand/Kan353/2004); assay type: cell-based, H5N1 pseudovirus in MDCK cells
[5] = test system: nuclear‐to‐cytoplasmic export of the RNP complex (NP); assay type: cell-based, 178 H5N1 HPAIV in MDCK cells
[6] = test system: influenza virus type A, A/Chicken/GuangDong/178/2004 (H5N1, 178)

Structure (SMILES) | HA titer, cultured with DMEM‐containing compounds (protocol 4, 5, 7) [1] | luciferase activities (RNP activity) compared with no treatment [2] | inhibitory activity when added at time intervals 5 min–1 h, 15 min–1 h, 30 min–1 h, 1–2 h, 2–4 h, or 4–8 h [3] | inhibitory effect against virus, time of addition [3] | inhibition at 52 µM ([3]; read-out: virus inhibited (HA titer)) | inhibitory activity on the N1‐type neuraminidase (purified N1‐type NA) | prevention of binding and internalizing of H5N1 pseudovirions into MDCK cells [4] | location of NP protein at 48 h p.i. (multi‐round replication) [5] | migration of the RNP complex from the nucleus to cytoplasm, early and middle stages of the replication cycle (0–6 h) [5] | time for which antiviral activity (block in vRNP nuclear export) was retained [5] | CC50 (MDCK cells) | SI (CC50/EC50) [6] | distribution of NP protein at 12, 24, and 48 h p.i. [5]
O[C@H]1[C@H]2c3cc4c(cc3CN3CCC(=C[C@@H]1O)[C@H]23)OCO4 [AA1, lycorine] | no HA titer was detected | slightly higher luciferase activities | not significant | observed after a single round of replication (12 h p.i.) | ~50% | did not exhibit significant inhibitory activity | neither AA1 nor AA3 could prevent | NP protein was exported to cytoplasm | affected migration of the RNP complex from the nucleus to cytoplasm | up to 24 h | 20·9 ± 0·07 μM | >45 | 
O=c1cc(N2CCOCC2)oc2c(-c3ccccc3)cccc12 [LY294002, reference compound] |  |  |  |  |  |  |  |  |  |  |  |  | the protein was still in the nucleus
